{"source": "paper PMC4595804", "about": "“A strategy to discover decoy chemokine ligands with an anti-inflammatory activity” (Scientific Reports, 2015)", "format_in_all_cases": "cell-based", "key": {"CXCL12": {"molecular_target": "T1, CXCL12 (Homo sapiens, UniProt P48061)", "T1 construct": "(His)6; made in house; host or cells: E. coli BL21 (DE3)", "T1 sequence (P48061 22-93)": "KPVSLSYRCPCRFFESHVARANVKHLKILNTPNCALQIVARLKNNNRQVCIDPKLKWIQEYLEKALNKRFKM", "experiment": "TRIC-r calcium assay, neutraligand protocol, EGFP-CXCR4+ HEK cells", "details": "10 μM compound, 5 nM CXCL12, EGFP-CXCR4+ HEK cells"}, "CCL4": {"molecular_target": "T2, CCL4 (Homo sapiens, UniProt P13236)", "T2 construct": "purchased R&D systems", "T2 sequence (P13236 24-92)": "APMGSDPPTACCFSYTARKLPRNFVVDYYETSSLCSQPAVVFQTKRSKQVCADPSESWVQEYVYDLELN", "experiment": "Selectivity, neutraligand protocol, EGFP-CCR5+ HEK cells", "details": "10 μM compound, 5 nM CCL4, EGFP-CCR5+ HEK cells", "procedure": "(§1) Figure 6 (a) Selectivity of CCL17 and CCL22 neutraligands towards 10 chemokines according to the “neutraligand protocol”. […] Each column represents the mean (block) ± SD (bars) of n = 3 experiments performed in triplicate. *p < 0.05; **p < 0.01; ***p < 0.005 as compared to chemokine + DMSO. (b) Chemokine neutraligands inhibited CCR4 endocytosis induced by CCL22 or CCL17. EGFP-CCR4^+ HEK cells were incubated for 30 min with DMSO or chemokine (100 nM CCL22 or CCL17) in the presence or absence of test compounds. […] Cell surface EGFP-tagged CCR4 receptors were measured by EGFP antibody labeling and flow cytometry analysis. CCR4 internalization was expressed as a percentage of total receptor surface expression calculated using control cells incubated with DMSO (100%). Each column represents the mean (block) ± SD (bars) of n = 3 experiments performed in triplicate. *p < 0.05; **p < 0.01; ***p < 0.005 as compared to chemokine alone. (c,d) Inhibition of CCL17 and CCL22- induced CCR4^+HUT78 T cell chemotaxis by neutraligands. […] The number of migrating cells induced by a chemokine alone was set at 100% migration. The number of migrating cells in the presence of chemokine and compounds were expressed as the corresponding percentages. Results were analyzed by fitting the experimental curves (% of migrating cells vs log compound concentration) using the Kaleidagraph software program, and the corresponding IC50 values were calculated. Means and SD values of triplicates were plotted.\n(§2) Human cDNAs encoding CCR4 and CXCR3 receptors were cloned in pIRES plasmid (Clontech) while cDNAs encoding CCR2, CCR5, CXCR2 and CXCR4 receptors were cloned in pCEP4 vector (Life technologies). The receptors are cloned in frame with a signal peptide fused to enhanced green fluorescent protein (EGFP) as described previously. All plasmid constructs were fully sequenced prior to transfections. Human Kidney Embryonic HEK-293 cells (ATCC) were maintained in Minimal Essential Medium (MEM, Invitrogen) supplemented with 10% FCS, penicillin (100 U/ml), streptomycin (100 μg/ml) and L-glutamine (2 mM) (Invitrogen) at 37 °C and 5% CO2. The cells were transfected with pIRES EGFP-CCR4 plasmid using calcium phosphate precipitation method. Stably EGFP-CCR4^+ HEK cells were selected for 5 weeks with geneticin (G-418, 600μg/ml), and resulting cell clones were checked by fluorescence microscopy and FACS analysis. HEK cells stably expressing human CXCR2, CXCR3, CXCR4, CCR5 and CCR2 were generated as described previously.\n(§3) Dye loaded cells were placed in the FlexStation 3 (Molecular Devices). Calcium mobilization was measured at 401 and 475 nm emission fluorescence after excitation at 355 nm. For the primary screening, the ligands (50μl of chemokine mixed with DMSO or test compounds) were added to the cells at 40 s, followed by digitonin addition (50μl) at 100 s to the cells. Molecules were screened at a final concentration of 2μg/ml with 5 nM CCL17 or CCL22. […] Raw fluorescence data (at 401 and 475 nm) were exported and the ratio 401/475 was calculated. The calcium response values (height of peak response over baseline) were determined. Hits were selected by comparing the response amplitude at the time of the chemokine addition ± test compound. The Z’ factor[29] was calculated according to the following equation: Z’ = 1-(3SD+ + 3SD−)/|Ave+ − Ave−|, where SD+ and Ave+ are respectively the standard deviation and the mean value of the positive controls (chemokine + DMSO), while SD− and Ave− are respectively the standard deviation and the mean value of the negative controls (HEPES-BSA (0.1%) mixed with DMSO, or cells mixed with C-021). Hit molecules were confirmed by performing concentration-response curves and their half maximal inhibitory concentration (IC50) values were calculated using the Kaleidagraph software."}, "CCL3": {"molecular_target": "T3, CCL3 (Homo sapiens, UniProt P10147)", "T3 construct": "purchased R&D systems", "T3 sequence (P10147 24-92)": "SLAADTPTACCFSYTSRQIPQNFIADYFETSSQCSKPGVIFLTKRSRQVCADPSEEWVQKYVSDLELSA", "experiment": "Selectivity, neutraligand protocol, EGFP-CCR5+ HEK cells", "details": "10 μM compound, 5 nM CCL3, EGFP-CCR5+ HEK cells", "procedure": "as §1, §2, §3"}, "CCL17": {"molecular_target": "T4, CCL17 (Homo sapiens, UniProt Q92583)", "T4 construct": "codes for the mature CCL17 or CCL22 with an N-terminal thioredoxin-hexahistidin (TRX- (His)6) tag; thioredoxin (TRX) (N, cleaved yes); (His)6 (N, cleaved yes); made in house; host or cells: E. coli BL21 (DE3)", "T4 sequence (Q92583 24-94)": "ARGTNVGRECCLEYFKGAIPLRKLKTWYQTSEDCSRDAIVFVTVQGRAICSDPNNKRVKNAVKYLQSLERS", "experiment": "TRIC-r calcium assay, neutraligand protocol: compound preincubated with CCL17, EGFP-CCR4+Gqi5+ HEK cells", "procedure": "EGFP-CCR4^+Gqi5^+HEKcells were loaded with fluorescent Ca^2+-indicator Indo-1 AM (5μM, Interchim) for 45 min at 37 °C. […] Cells (100,000 cells/well, 100μl) were seeded in black clear bottom 96-well plates (Greiner), and centrifuged at 250 × g for 5 min.\nTwo plates (96-well plates, Greiner) were prepared for the screen: one containing test compounds alone in order to determine their direct agonistic activity, and another one containing test compounds mixed with CCL17 or CCL22 at room temperature for 1 h (neutraligand protocol). The chemokines and test compounds were prepared at a 3× concentration, while digitonin was prepared at a 4× concentration. The CCR4 antagonist, C-021 served as control in the experiment. In the antagonist protocol, compounds were added to the cell plate (one compound per well) and incubated with cells for 30 min at room temperature, while the agonist (CCL17 or CCL22) was added to the ligand plate only.\nDye loaded cells were placed in the FlexStation 3 (Molecular Devices). […] For the primary screening, the ligands (50μl of chemokine mixed with DMSO or test compounds) were added to the cells at 40 s, followed by digitonin addition (50μl) at 100 s to the cells. Molecules were screened at a final concentration of 2μg/ml with 5 nM CCL17 or CCL22. […] The calcium response values (height of peak response over baseline) were determined. Hits were selected by comparing the response amplitude at the time of the chemokine addition ± test compound. The Z’ factor[29] was calculated according to the following equation: Z’ = 1-(3SD+ + 3SD−)/|Ave+ − Ave−|, where SD+ and Ave+ are respectively the standard deviation and the mean value of the positive controls (chemokine + DMSO), while SD− and Ave− are respectively the standard deviation and the mean value of the negative controls (HEPES-BSA (0.1%) mixed with DMSO, or cells mixed with C-021). Hit molecules were confirmed by performing concentration-response curves and their half maximal inhibitory concentration (IC50) values were calculated using the Kaleidagraph software."}}, "note": "Read-outs that look alike come from different tables or passages of the source."}
{"smiles": "O=C(OCC(O)CO)c1ccccc1O", "note": "(stereo not drawn) [GPN136, 2,3-dihydroxypropyl 2-hydroxybenzoate]", "values": [{"measurement": "effect on calcium responses induced by CXCL12", "setting": "CXCL12", "value": "no effect"}, {"measurement": "effect on calcium responses induced by CCL4", "setting": "CCL4", "value": "no effect"}, {"measurement": "effect on calcium responses induced by CCL3", "setting": "CCL3", "value": "no effect"}, {"measurement": "inhibition of CCL17-evoked calcium responses (selectivity)", "setting": "CCL17; 10 μM compound, 5 nM CCL17, EGFP-CCR4+ HEK cells", "value": "no effect"}, {"measurement": "inhibition at 5 µM", "setting": "CCL17; HEK293, compound 5 µM, read-out: Inhibition of CCL17 calcium responses (%)", "value": 0, "unit": "%"}]}
{"smiles": "CC(C)=CCn1cnc2c1c(=O)n(C)c(=O)n2C", "note": "[GPN279, 1,3-dimethyl-7-(3-methylbut-2-enyl)-1H-purine-2,6(3H, 7H)-dione]", "values": [{"measurement": "effect on calcium responses induced by CXCL12", "setting": "CXCL12", "value": "no effect"}, {"measurement": "effect on calcium responses induced by CCL4", "setting": "CCL4", "value": "no effect"}, {"measurement": "effect on calcium responses induced by CCL3", "setting": "CCL3", "value": "no effect"}, {"measurement": "calcium response induced by WT CCL17 preincubated with compound", "setting": "CCL17; 10 μM compound, 5 nM chemokine, remaining response", "value": "56.0 ± 5.0", "unit": "%"}, {"measurement": "inhibition at 5 µM", "setting": "CCL17; HEK293, read-out: Inhibition of CCL17 calcium responses (%)", "value": "42 ± 4", "unit": "%"}, {"measurement": "inhibition at 10 µM", "setting": "CCL17; HEK293, read-out: inhibition of CCL17-evoked calcium responses (selectivity)", "value": 40, "unit": "%"}, {"measurement": "inhibition at 2 µg/mL", "setting": "CCL17; HEK293, read-out: inhibition of CCL17-induced calcium responses (primary screen)", "value": 42, "unit": "%"}]}
